Legend:
[1] = target: Glutamate receptor ionotropic, kainate (Rattus norvegicus) (UniProt P22756+Q01812+P42260+P42264+Q63273); experiment: Inhibition of Glutamate, Kainate at 10 µM in the Eurofins-Panlabs radioligand binding assay (Eurofins_assay_232700); settings: Compound concentration 10.0 uM
[2] = target: Mitogen-activated protein kinase 3 (Homo sapiens) (UniProt P27361); experiment: Inhibition of Protein Serine/Threonine Kinase, MAPK3 (ERK1) at 10 µM in the Eurofins-Panlabs enzyme assay (Eurofins_assay_171000); settings: Compound concentration 10.0 uM
[3] = test system: Tyrosine-protein kinase ABL1 (Homo sapiens), P00519 [M351T]; settings: Compound concentration 1000.0 nM
[4] = target: Aurora kinase C (Homo sapiens) (UniProt Q9UQB9); settings: Compound concentration 1000.0 nM
[5] = target: Bone morphogenetic protein receptor type-2 (Homo sapiens) (UniProt Q13873); settings: Compound concentration 1000.0 nM
[6] = target: Cyclin-dependent kinase 11B (Homo sapiens) (UniProt P21127); settings: Compound concentration 1000.0 nM
[7] = target: Cyclin-dependent kinase 13 (Homo sapiens) (UniProt Q14004); settings: Compound concentration 1000.0 nM
[8] = target: Cyclin-dependent kinase-like 3 (Homo sapiens) (UniProt Q8IVW4); settings: Compound concentration 1000.0 nM
[9] = target: Casein kinase I isoform epsilon (Homo sapiens) (UniProt P49674); settings: Compound concentration 1000.0 nM
[10] = target: Casein kinase I isoform gamma-1 (Homo sapiens) (UniProt Q9HCP0); settings: Compound concentration 1000.0 nM
[11] = target: Casein kinase II subunit alpha' (Homo sapiens) (UniProt P19784); settings: Compound concentration 1000.0 nM
[12] = target: Ephrin type-A receptor 2 (Homo sapiens) (UniProt P29317); settings: Compound concentration 1000.0 nM
[13] = target: Ephrin type-A receptor 3 (Homo sapiens) (UniProt P29320); settings: Compound concentration 1000.0 nM
[14] = target: Receptor tyrosine-protein kinase erbB-3 (Homo sapiens) (UniProt P21860); settings: Compound concentration 1000.0 nM
[15] = target: Focal adhesion kinase 1 (Homo sapiens) (UniProt Q05397); settings: Compound concentration 1000.0 nM
[16] = target: Receptor-type tyrosine-protein kinase FLT3 (Homo sapiens) (UniProt P36888); settings: Compound concentration 1000.0 nM
[17] = target: Tyrosine-protein kinase Fyn (Homo sapiens) (UniProt P06241); settings: Compound concentration 1000.0 nM
[18] = target: G protein-coupled receptor kinase 3 (Homo sapiens) (UniProt P35626); settings: Compound concentration 1000.0 nM
[19] = target: Homeodomain-interacting protein kinase 1 (Homo sapiens) (UniProt Q86Z02); settings: Compound concentration 1000.0 nM
[20] = target: Interleukin-1 receptor-associated kinase 4 (Homo sapiens) (UniProt Q9NWZ3); settings: Compound concentration 1000.0 nM
[21] = target: Mitogen-activated protein kinase 9 (Homo sapiens) (UniProt P45984); settings: Compound concentration 1000.0 nM
Mitogen-activated protein kinase 9 (Homo sapiens), sequence (P45984 whole entry, looked up): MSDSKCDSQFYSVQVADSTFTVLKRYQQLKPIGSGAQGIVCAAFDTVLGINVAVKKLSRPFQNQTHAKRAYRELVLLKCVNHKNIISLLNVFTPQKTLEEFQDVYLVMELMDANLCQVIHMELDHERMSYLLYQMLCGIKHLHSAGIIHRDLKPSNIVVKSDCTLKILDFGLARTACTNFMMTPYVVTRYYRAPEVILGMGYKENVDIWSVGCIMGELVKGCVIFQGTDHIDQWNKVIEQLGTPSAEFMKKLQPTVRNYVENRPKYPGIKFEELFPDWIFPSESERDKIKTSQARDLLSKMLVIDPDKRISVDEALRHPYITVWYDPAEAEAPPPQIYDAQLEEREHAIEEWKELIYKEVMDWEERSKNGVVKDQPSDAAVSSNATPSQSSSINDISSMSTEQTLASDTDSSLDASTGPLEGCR

[22] = test system: Mast/stem cell growth factor receptor Kit (Homo sapiens), P10721 [D816H]; settings: Compound concentration 1000.0 nM
[23] = target: MAP kinase-activated protein kinase 2 (Homo sapiens) (UniProt P49137); settings: Compound concentration 1000.0 nM
MAP kinase-activated protein kinase 2 (Homo sapiens), sequence (P49137 whole entry, looked up): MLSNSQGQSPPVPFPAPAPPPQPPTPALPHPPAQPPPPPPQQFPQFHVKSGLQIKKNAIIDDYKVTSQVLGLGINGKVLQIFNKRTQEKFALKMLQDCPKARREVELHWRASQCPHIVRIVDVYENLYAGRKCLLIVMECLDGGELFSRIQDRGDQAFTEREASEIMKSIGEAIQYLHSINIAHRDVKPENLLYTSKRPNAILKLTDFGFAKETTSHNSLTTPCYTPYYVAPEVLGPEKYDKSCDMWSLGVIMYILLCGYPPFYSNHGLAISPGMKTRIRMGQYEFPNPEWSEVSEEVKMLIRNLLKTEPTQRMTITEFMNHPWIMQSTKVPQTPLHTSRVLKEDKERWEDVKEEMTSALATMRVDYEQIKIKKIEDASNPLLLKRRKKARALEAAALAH

[24] = target: MAP kinase-interacting serine/threonine-protein kinase 2 (Homo sapiens) (UniProt Q9HBH9); settings: Compound concentration 1000.0 nM
MAP kinase-interacting serine/threonine-protein kinase 2 (Homo sapiens), sequence (Q9HBH9 whole entry, looked up): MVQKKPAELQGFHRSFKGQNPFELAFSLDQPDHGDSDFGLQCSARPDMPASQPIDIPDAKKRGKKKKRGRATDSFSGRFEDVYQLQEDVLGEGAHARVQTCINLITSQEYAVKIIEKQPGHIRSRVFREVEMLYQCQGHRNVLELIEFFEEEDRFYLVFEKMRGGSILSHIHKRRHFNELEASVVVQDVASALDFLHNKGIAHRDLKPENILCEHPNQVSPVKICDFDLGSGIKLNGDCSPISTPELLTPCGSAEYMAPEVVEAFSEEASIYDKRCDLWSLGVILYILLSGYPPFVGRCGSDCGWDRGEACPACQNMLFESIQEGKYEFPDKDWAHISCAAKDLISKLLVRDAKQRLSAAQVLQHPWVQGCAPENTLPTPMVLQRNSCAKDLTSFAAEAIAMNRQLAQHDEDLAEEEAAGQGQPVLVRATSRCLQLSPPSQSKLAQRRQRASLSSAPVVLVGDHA

[25] = target: Myosin-IIIa (Homo sapiens) (UniProt Q8NEV4); settings: Compound concentration 1000.0 nM
[26] = target: Serine/threonine-protein kinase Nek11 (Homo sapiens) (UniProt Q8NG66); settings: Compound concentration 1000.0 nM
[27] = target: Serine/threonine-protein kinase Nek3 (Homo sapiens) (UniProt P51956); settings: Compound concentration 1000.0 nM
[28] = target: Mitogen-activated protein kinase 13 (Homo sapiens) (UniProt O15264); settings: Compound concentration 1000.0 nM
[29] = target: Serine/threonine-protein kinase PAK 5 (Homo sapiens) (UniProt Q9P286); settings: Compound concentration 1000.0 nM
[30] = test system: Phosphatidylinositol 4,5-bisphosphate 3-kinase catalytic subunit alpha isoform (Homo sapiens), P42336 [E545A]; settings: Compound concentration 1000.0 nM
[31] = target: Serine/threonine-protein kinase PLK3 (Homo sapiens) (UniProt Q9H4B4); settings: Compound concentration 1000.0 nM
Serine/threonine-protein kinase PLK3 (Homo sapiens), sequence (Q9H4B4 whole entry, looked up): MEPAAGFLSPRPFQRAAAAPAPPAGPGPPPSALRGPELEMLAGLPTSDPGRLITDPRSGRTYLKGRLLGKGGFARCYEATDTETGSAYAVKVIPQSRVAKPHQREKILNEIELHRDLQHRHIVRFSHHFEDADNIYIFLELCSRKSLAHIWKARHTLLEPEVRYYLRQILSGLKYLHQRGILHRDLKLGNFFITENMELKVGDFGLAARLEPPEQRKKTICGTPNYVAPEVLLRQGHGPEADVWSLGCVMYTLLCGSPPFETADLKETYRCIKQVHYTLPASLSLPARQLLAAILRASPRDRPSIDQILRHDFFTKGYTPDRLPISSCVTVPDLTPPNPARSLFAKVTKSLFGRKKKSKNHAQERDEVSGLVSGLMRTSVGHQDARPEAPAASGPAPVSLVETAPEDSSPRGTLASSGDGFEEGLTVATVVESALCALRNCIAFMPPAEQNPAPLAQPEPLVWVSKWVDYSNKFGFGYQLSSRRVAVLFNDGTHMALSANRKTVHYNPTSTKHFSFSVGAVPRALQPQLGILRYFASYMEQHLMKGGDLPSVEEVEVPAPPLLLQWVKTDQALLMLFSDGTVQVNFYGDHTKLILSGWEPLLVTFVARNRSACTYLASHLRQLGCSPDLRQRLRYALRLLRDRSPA

[32] = target: Serine/threonine-protein kinase D2 (Homo sapiens) (UniProt Q9BZL6); settings: Compound concentration 1000.0 nM
[33] = target: Ribosomal protein S6 kinase alpha-1 (Homo sapiens) (UniProt Q15418); settings: Compound concentration 1000.0 nM
Ribosomal protein S6 kinase alpha-1 (Homo sapiens), sequence (Q15418 whole entry): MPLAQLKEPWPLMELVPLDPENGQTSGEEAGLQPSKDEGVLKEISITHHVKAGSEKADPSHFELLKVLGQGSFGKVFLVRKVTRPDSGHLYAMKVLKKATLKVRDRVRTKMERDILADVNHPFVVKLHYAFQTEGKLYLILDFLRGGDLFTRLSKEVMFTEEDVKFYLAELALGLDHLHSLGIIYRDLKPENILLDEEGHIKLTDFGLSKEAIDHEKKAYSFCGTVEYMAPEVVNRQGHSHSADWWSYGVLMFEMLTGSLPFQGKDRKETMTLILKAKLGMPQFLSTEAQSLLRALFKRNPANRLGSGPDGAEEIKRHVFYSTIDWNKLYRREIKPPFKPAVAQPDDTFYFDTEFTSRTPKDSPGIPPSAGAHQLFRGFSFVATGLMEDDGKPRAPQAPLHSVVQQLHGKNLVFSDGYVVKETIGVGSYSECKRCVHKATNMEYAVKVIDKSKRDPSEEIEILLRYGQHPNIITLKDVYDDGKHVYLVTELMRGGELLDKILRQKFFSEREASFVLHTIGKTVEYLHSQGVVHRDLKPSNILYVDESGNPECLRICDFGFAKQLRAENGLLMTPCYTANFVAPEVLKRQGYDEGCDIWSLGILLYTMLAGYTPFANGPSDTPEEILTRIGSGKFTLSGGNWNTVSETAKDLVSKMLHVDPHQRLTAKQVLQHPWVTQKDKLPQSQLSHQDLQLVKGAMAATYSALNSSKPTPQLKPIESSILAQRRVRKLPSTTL

[34] = target: NUAK family SNF1-like kinase 2 (Homo sapiens) (UniProt Q9H093); settings: Compound concentration 1000.0 nM
[35] = target: Tyrosine-protein kinase Tec (Homo sapiens) (UniProt P42680); settings: Compound concentration 1000.0 nM
[36] = target: Activated CDC42 kinase 1 (Homo sapiens) (UniProt Q07912); settings: Compound concentration 1000.0 nM
Activated CDC42 kinase 1 (Homo sapiens), sequence (Q07912 whole entry, looked up): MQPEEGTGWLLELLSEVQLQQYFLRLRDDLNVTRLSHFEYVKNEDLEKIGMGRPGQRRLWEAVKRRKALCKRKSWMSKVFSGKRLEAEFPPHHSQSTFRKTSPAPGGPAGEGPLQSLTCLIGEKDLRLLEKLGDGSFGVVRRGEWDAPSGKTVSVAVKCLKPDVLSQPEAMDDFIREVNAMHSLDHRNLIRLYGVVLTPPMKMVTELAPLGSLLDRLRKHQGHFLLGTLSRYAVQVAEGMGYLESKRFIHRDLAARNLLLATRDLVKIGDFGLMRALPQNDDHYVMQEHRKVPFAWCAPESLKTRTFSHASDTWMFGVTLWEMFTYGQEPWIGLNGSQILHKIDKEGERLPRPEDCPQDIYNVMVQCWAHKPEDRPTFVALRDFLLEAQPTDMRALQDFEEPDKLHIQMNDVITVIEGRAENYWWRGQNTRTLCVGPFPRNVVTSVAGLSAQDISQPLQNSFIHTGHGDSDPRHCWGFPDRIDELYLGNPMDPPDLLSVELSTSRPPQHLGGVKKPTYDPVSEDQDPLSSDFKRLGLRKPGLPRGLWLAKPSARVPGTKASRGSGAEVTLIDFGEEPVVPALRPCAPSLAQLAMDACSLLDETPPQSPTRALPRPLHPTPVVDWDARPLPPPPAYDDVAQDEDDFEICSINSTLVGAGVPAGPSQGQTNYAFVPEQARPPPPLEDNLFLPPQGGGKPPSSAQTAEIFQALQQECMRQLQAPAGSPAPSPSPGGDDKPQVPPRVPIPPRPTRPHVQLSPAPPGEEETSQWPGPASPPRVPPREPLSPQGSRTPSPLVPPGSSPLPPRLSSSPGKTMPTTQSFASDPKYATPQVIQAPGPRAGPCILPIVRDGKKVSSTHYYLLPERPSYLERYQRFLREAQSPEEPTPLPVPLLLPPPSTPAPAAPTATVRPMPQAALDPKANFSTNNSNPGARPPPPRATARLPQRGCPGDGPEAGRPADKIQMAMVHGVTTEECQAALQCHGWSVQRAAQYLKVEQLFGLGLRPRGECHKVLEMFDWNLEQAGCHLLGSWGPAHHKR

[37] = target: NT-3 growth factor receptor (Homo sapiens) (UniProt Q16288); settings: Compound concentration 1000.0 nM
NT-3 growth factor receptor (Homo sapiens), sequence (Q16288 32-839 limits assumed): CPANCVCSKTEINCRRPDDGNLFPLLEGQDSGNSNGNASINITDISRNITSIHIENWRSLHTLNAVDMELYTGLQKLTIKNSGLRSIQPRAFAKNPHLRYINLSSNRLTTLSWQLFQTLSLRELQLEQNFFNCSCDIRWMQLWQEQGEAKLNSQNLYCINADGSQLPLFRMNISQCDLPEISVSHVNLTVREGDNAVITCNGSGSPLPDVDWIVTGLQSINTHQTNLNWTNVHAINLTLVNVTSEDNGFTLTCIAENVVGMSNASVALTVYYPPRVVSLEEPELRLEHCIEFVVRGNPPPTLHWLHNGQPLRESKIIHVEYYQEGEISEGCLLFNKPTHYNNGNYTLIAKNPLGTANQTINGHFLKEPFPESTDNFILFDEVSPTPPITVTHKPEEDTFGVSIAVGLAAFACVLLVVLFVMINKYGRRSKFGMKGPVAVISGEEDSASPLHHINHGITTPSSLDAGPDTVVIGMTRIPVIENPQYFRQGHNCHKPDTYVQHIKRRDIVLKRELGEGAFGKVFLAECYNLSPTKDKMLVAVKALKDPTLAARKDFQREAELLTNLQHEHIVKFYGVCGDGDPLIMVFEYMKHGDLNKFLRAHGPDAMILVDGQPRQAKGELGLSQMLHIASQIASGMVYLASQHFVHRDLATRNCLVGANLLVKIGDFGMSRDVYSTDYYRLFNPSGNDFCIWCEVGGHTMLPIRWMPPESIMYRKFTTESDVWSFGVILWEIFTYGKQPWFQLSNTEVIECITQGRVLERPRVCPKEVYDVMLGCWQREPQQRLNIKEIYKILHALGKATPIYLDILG

[38] = target: Serine/threonine-protein kinase ULK1 (Homo sapiens) (UniProt O75385); settings: Compound concentration 1000.0 nM
[39] = target: Delta-type opioid receptor (Homo sapiens) (UniProt P41143); settings: Compound concentration 10.0 uM
Delta-type opioid receptor (Homo sapiens), sequence (P41143 whole entry): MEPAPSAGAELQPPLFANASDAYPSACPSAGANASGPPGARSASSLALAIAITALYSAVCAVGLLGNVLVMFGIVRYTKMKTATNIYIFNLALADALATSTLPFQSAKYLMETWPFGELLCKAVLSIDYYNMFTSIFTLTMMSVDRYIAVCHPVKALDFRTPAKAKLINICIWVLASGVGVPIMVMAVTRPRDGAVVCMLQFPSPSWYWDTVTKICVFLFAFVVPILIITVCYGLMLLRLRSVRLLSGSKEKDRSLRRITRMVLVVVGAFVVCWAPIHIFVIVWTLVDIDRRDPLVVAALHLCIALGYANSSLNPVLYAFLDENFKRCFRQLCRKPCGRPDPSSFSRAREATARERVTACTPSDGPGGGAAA

[40] = target: Histamine H1 receptor (Homo sapiens) (UniProt P35367); settings: Compound concentration 10.0 uM
[41] = target: D(3) dopamine receptor (Homo sapiens) (UniProt P35462); settings: Compound concentration 10.0 uM
[42] = target: GABA-A receptor; anion channel (Rattus norvegicus) (UniProt O09028+P15431+P18506+P18508+P19969+P20236+P23574+P23576+P28471+P28473+P30191+P62813+P63079+P63138+Q91ZM7+Q9ES14); settings: Compound concentration 10.0 uM
[43] = target: Kappa-type opioid receptor (Homo sapiens) (UniProt P41145); settings: Compound concentration 10.0 uM

Compound `O=C(NCc1ncc(C(F)(F)F)cc1Cl)c1ccc2c(c1)C1(CCS(=O)(=O)CC1)[C@H](C1CC1)N2S(=O)(=O)c1ccc(F)cc1` [BAY-784] has an inhibition [1] of 1%, an inhibition [2] of 87% and a residual activity [3] of 91%. The residual activity [4] was 82%, the residual activity [5] was 80% and the residual activity [6] was 100%. It also gave a residual activity [7] of 88%, a residual activity [8] of 100% and a residual activity [9] of 100%. It also gave a residual activity [10] of 86%, a residual activity [11] of 100% and a residual activity [12] of 100%. The residual activity [13] was 100%, the residual activity [14] was 100% and the residual activity [15] was 100%. For the same compound, the residual activity [16] was 95%, the residual activity [17] was 100% and the residual activity [18] was 99%. It also gave a residual activity [19] of 83%, a residual activity [20] of 100% and a residual activity [21] of 76%. For the same compound, the residual activity [22] was 79%, the residual activity [23] was 100% and the residual activity [24] was 83%. The residual activity [25] was 100%, the residual activity [26] was 100% and the residual activity [27] was 100%. For the same compound, the residual activity [28] was 99%, the residual activity [29] was 100% and the residual activity [30] was 89%. For the same compound, the residual activity [31] was 92%, the residual activity [32] was 98% and the residual activity [33] was 100%. The residual activity [34] was 81%, the residual activity [35] was 100% and the residual activity [36] was 85%. It also gave a residual activity [37] of 84%, a residual activity [38] of 90% and an inhibition [39] of -0.34%. It also gave an inhibition [40] of 24.6%, an inhibition [41] of 17% and an inhibition [42] of -1%. It also gave an inhibition [43] of 7%.

In the case of `O=C(NCc1ncc(C(F)(F)F)cc1Cl)c1ccc2c(c1)C1(CCS(=O)(=O)CC1)[C@@H](C1CC1)N2S(=O)(=O)c1ccc(F)cc1` [BAY-786], the residual activity [3] is reported as 94%, the residual activity [4] is reported as 80% and the residual activity [5] is reported as 73%. It also gave a residual activity [6] of 100%, a residual activity [7] of 89% and a residual activity [8] of 100%. It also gave a residual activity [9] of 100%, a residual activity [10] of 90% and a residual activity [11] of 72%. For the same compound, the residual activity [12] was 84%, the residual activity [13] was 67% and the residual activity [14] was 100%. For the same compound, the residual activity [15] was 95%, the residual activity [16] was 94% and the residual activity [17] was 70%. For the same compound, the residual activity [18] was 100%, the residual activity [19] was 70% and the residual activity [20] was 90%. The residual activity [21] was 82%, the residual activity [22] was 64% and the residual activity [23] was 100%. The residual activity [24] was 76%, the residual activity [25] was 100% and the residual activity [26] was 100%. For the same compound, the residual activity [27] was 100%, the residual activity [28] was 86% and the residual activity [29] was 74%. For the same compound, the residual activity [30] was 90%, the residual activity [31] was 82% and the residual activity [32] was 90%. For the same compound, the residual activity [33] was 89%, the residual activity [34] was 75% and the residual activity [35] was 100%. For the same compound, the residual activity [36] was 84%, the residual activity [37] was 71% and the residual activity [38] was 80%. The inhibition [39] was -2.65% and the inhibition [40] was 8.01%.

— ChEMBL document CHEMBL4507266, “Data for DCP probe BAY-784” (2021)
